In brackets after ≈: the same amount, converted by molar mass. Where two headings read alike, the source gives them in different places.
What was measured:
C. krusei = experiment: Expanded set of yeasts, MIC broth microdilution (CLSI); assay type: cell-based; details: Pichia kudriavzevii, ATCC6258; isolate ATCC 6258; MIC at 50% inhibition
[1] = test system: PolyAU double stranded RNA; experiment: Fluorescence intercalator displacement (FID) assay, SYBR-safe probe; details: 20 μM compound, 30° C., lower % = stronger binding
In short: (§1)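 Probe displacement was measured at 30 °C in 1 mM phosphate pH 7.4 containing SybrSafe (12500-fold dilution), 3.76 ng/mL nucleic acid (salmon dsDNA or polyAU dsRNA) and 20 μM compound. Fluorescence loss is normalised between probe-only and probe-plus-nucleic-acid controls.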

[2] = test system: Genomic double stranded DNA (salmon); experiment: as above; details: 20 μM compound, 30° C., lower % = stronger binding
In short: as §1

Paecilomyces variotii = experiment: Expanded set of filamentous fungi, MIC broth microdilution (CLSI); assay type: cell-based; details: isolate MYA-3630, MIC at 50% inhibition
Scedosporium spp. = experiment: as above; assay type: cell-based
C. glabrata = experiment: Expanded set of yeasts, MIC broth microdilution (CLSI); assay type: cell-based; details: Nakaseomyces glabratus, MIC at 50% inhibition
Aspergillus flavus = experiment: Expanded set of filamentous fungi, MIC broth microdilution (CLSI); assay type: cell-based; details: MIC at 50% inhibition; for MIC50: Aspergillus flavus
[3] = test system: Staphylococcus aureus (ATCC 43300); experiment: Antibacterial MIC, broth microdilution (CLSI); assay type: cell-based; details: Staphylococcus aureus, ATCC43300; read-out: MIC80 S. aureus
C. albicans = experiment: Expanded set of yeasts, MIC broth microdilution (CLSI); assay type: cell-based; details: MIC at 50% inhibition; for MIC50: Candida albicans
Blastomyces dermatitidis = experiment: Expanded set of filamentous fungi, MIC broth microdilution (CLSI); assay type: cell-based
C. guilliiermondii = experiment: Expanded set of yeasts, MIC broth microdilution (CLSI); assay type: cell-based; details: MIC at 50% inhibition
Fusarium oxysporum = experiment: Expanded set of filamentous fungi, MIC broth microdilution (CLSI); assay type: cell-based; details: MIC at 50% inhibition
Fusarium solani = experiment: as above; assay type: cell-based; details: MIC at 50% inhibition
Lomentospora prolificans = experiment: as above; assay type: cell-based; details: isolate S2, MIC at 50% inhibition
[4] = test system: Escherichia coli (ATCC 25922); experiment: Antibacterial MIC, broth microdilution (CLSI); assay type: cell-based; details: Escherichia coli, ATCC25922; read-out: MIC80 E. coli
[5] = test system: Enterococcus faecalis (ATCC 51299); experiment: Antibacterial MIC, broth microdilution (CLSI); assay type: cell-based; details: Enterococcus faecalis, ATCC51299; read-out: MIC80 E. faecalis
Candida parapsilosis = experiment: Expanded set of yeasts, MIC broth microdilution (CLSI); assay type: cell-based; details: MIC at 50% inhibition; for MIC50: Lodderomyces parapsilosis
C. auris = experiment: as above; assay type: cell-based; details: MIC at 50% inhibition
Aspergillus fumigatus = experiment: Expanded set of filamentous fungi, MIC broth microdilution (CLSI); assay type: cell-based
Rhizopus arrhizus = experiment: as above; assay type: cell-based

CNC(=N)CCNC(=O)c1cc(NC(=O)c2cc(NC(=O)c3ccc(/C=C/c4cnc5ccccc5c4)cc3)cn2C)cn1C [Ia27, (E)-N-(3-imino-3-(methylamino)propyl)-1-methyl-4-(1-methyl-4-(4-(2-(quinolin-3-yl)vinyl)benzamido)-1H-pyrrole-2-carboxamido)-1H-pyrrole-2-carboxamide]
MIC50 (C. krusei): ≤ 1 µg/mL | % Normalised Fluorescence with polyAU RNA [1]: 17% | % Normalised Fluorescence with gDNA [2]: 13% | MIC50 (Paecilomyces variotii): 1 to 8 µg/mL (≈ 1.66 to 13.3 µM) | MIC50 (Scedosporium spp.; isolate S1, MIC at 50% inhibition): ≤ 1 µg/mL | MIC50 (Scedosporium spp.; isolate S3, MIC at 50% inhibition): ≤ 1 µg/mL | MIC50 (C. glabrata; isolate 05-62): ≤ 1 µg/mL | MIC50 (C. glabrata; isolate 05-761): ≤ 1 µg/mL | MIC50 (C. glabrata; isolate CG3): ≤ 1 µg/mL | MIC50 (Aspergillus flavus; ATCC204304, isolate ATCC 204304): ≤ 1 µg/mL | MIC50 (Aspergillus flavus; isolate Aflav2): ≤ 1 µg/mL | MIC50 Aspergillus flavus (Aspergillus flavus; isolate Aflav3): *** (*** means MIC50 <= 1 μg/mL) | MIC80 [3]: < 5 µM | MIC50 (C. albicans; isolate CA3): 1 to 8 µg/mL (≈ 1.66 to 13.3 µM) | MIC50 (C. albicans; isolate SC5314): 1 to 8 µg/mL (≈ 1.66 to 13.3 µM) | MIC50 C. albicans (C. albicans; isolate CA90028): ** (** means 1 μg/mL < MIC50 <= 8 μg/mL) | MIC50 (Blastomyces dermatitidis; isolate BD1, MIC at 50% inhibition): 1 to 8 µg/mL (≈ 1.66 to 13.3 µM) | MIC50 (Blastomyces dermatitidis; isolate BD2, MIC at 50% inhibition): 1 to 8 µg/mL (≈ 1.66 to 13.3 µM) | MIC50 (Blastomyces dermatitidis; isolate BD3, MIC at 50% inhibition): 8 to 32 µg/mL (≈ 13.3 to 53.1 µM) | MIC50 (C. guilliiermondii; isolate Cgui1): 1 to 8 µg/mL (≈ 1.66 to 13.3 µM) | MIC50 C. guilliiermondii (C. guilliiermondii; isolate Cgui2): ** (** means 1 μg/mL < MIC50 <= 8 μg/mL) | MIC50 C. guilliiermondii (C. guilliiermondii; isolate Cgui3): ** (** means 1 μg/mL < MIC50 <= 8 μg/mL) | MIC50 (Fusarium oxysporum; Fusarium oxysporum, isolate F2): ≤ 1 µg/mL | MIC50 Fusarium oxysporum (Fusarium oxysporum; isolate F3): *** (*** means MIC50 <= 1 μg/mL) | MIC50 (Fusarium solani; Fusarium solani, isolate F4): ≤ 1 µg/mL | MIC50 Fusarium solani (Fusarium solani; isolate DI19-284): *** (*** means MIC50 <= 1 μg/mL) | MIC50 (Lomentospora prolificans): ≤ 1 µg/mL | MIC80 [4]: > 100 µM | MIC80 [5]: < 5 µM | MIC50 (Candida parapsilosis; ATCC22019, isolate ATCC 22019, read-out: MIC50 Candida parapsilosis): 1 to 8 µg/mL (≈ 1.66 to 13.3 µM) | MIC50 (Candida parapsilosis; isolate CP1, read-out: MIC50 C. parapsilosis): 1 to 8 µg/mL (≈ 1.66 to 13.3 µM) | MIC50 C. parapsilosis (Candida parapsilosis; isolate CP2): ** (** means 1 μg/mL < MIC50 <= 8 μg/mL) | MIC50 C. parapsilosis (Candida parapsilosis; isolate CP3): ** (** means 1 μg/mL < MIC50 <= 8 μg/mL) | MIC50 (C. auris; Candidozyma auris, isolate DI17-47): 1 to 8 µg/mL (≈ 1.66 to 13.3 µM) | MIC50 C. auris (C. auris; isolate DI17-46): ** (** means 1 μg/mL < MIC50 <= 8 μg/mL) | MIC50 C. auris (C. auris; isolate DI17-48): ** (** means 1 μg/mL < MIC50 <= 8 μg/mL) | MIC50 (Aspergillus fumigatus; isolate AF293, MIC at 50% inhibition): ≤ 1 µg/mL | MIC50 (Aspergillus fumigatus; isolate DI15-106, MIC at 50% inhibition): ≤ 1 µg/mL | MIC50 (Aspergillus fumigatus; isolate DI15-116, MIC at 50% inhibition): ≤ 1 µg/mL | MIC50 (Aspergillus fumigatus; isolate DI19-187, MIC at 50% inhibition): ≤ 1 µg/mL | MIC50 (Aspergillus fumigatus; isolate DI19-230, MIC at 50% inhibition): ≤ 1 µg/mL | MIC50 (Aspergillus fumigatus; isolate DI19-231, MIC at 50% inhibition): ≤ 1 µg/mL | MIC50 (Aspergillus fumigatus; isolate DI19-232, MIC at 50% inhibition): ≤ 1 µg/mL | MIC50 (Aspergillus fumigatus; isolate DI19-233, MIC at 50% inhibition): ≤ 1 µg/mL | MIC50 (Aspergillus fumigatus; isolate DI19-234, MIC at 50% inhibition): ≤ 1 µg/mL | MIC50 (Aspergillus fumigatus; isolate DI19-236, MIC at 50% inhibition): ≤ 1 µg/mL | MIC50 (Aspergillus fumigatus; isolate DI19-237, MIC at 50% inhibition): ≤ 1 µg/mL | MIC50 (Aspergillus fumigatus; isolate DI20-95, MIC at 50% inhibition): ≤ 1 µg/mL | MIC50 (Aspergillus fumigatus; isolate DI20-103, MIC at 50% inhibition): ≤ 1 µg/mL | MIC50 (Rhizopus arrhizus; isolate 99-880, MIC at 50% inhibition): ≤ 1 µg/mL | MIC50 (Rhizopus arrhizus; isolate 99-892, MIC at 50% inhibition): ≤ 1 µg/mL | MIC50 (Rhizopus arrhizus; isolate RA3, MIC at 50% inhibition): 1 to 8 µg/mL (≈ 1.66 to 13.3 µM)
